The IC50 is the concentration that inhibits the measured activity by half. A lower IC50 goes with inhibition by little substance. The term MIC denotes the lowest concentration that inhibits growth of the organism. High values mean a need for much substance, low ones inhibition by little substance.

We go through two molecules from ChEMBL document CHEMBL1147122, “Eurysterols A and B, cytotoxic and antifungal steroidal sulfates from a marine sponge of the genus Euryspongia” (J Nat Prod, 2007).

Assay [1] deals with HCT-116. In words: Cytotoxicity against human HCT116 cells after 72 hrs. It is filed as cell-based. The conditions noted are these: HCT-116, 72 h.
The subject of assay [2] is Candida albicans. In words: Antifungal activity against wild type-Candida albicans ATCC 32354 after 14 to 16 hrs. The assay is classed as functional.
For assay [3], the system named is Candida albicans. The assay is described as follows: Antifungal activity against amphotericin-B-resistant Candida albicans ATCC 90873 after 14 to 16 hrs. It is filed as functional.

For the molecule `CC(C)CCC[C@@H](C)[C@H]1CC[C@@H]2[C@]1(C)CC[C@H]1[C@@]23C[C@@H](O)[C@@]2(O)C[C@@H](OS(=O)(=O)[O-])CC[C@]12CO3.[Na+]` [EURYSTEROL A], it took 2.9 µg/mL to reach half-maximal inhibition in assay [1] (IC50). The MIC in assay [2] and in assay [3] was 15.6 µg/mL each time.
For the molecule `CC(C)C/C=C/[C@@H](C)[C@H]1CC[C@@H]2[C@]1(C)CC[C@H]1[C@@]23C[C@@H](O)[C@@]2(O)C[C@@H](OS(=O)(=O)[O-])CC[C@]12CO3.[Na+]` [EURYSTEROL B], in assay [1], the IC50 amounted to 14.3 µg/mL. Besides, the minimal inhibitory concentration (MIC) in assay [2] and in assay [3] was 62.5 µg/mL each time.
